The source of these data is patent US20060293374A1, “Substituted isothiazolones” (priority 2005, published 2006).

Structures are written as SMILES.

In test [1] the test system is TXB2 Released by Human Platelets. Description: Ionophore and arachidonic acid induced TXB2 released by human platelets (EIA). The format is cell-based. Conditions: human platelet-rich plasma; for IC50: challenge with calcium ionophore (10 μM) or arachidonic acid (50 μM); for inhibition at 1 µM: test concentration of 1 μM, calcium ionophore or arachidonic acid challenge, read-out: TXB2 percent inhibition. Here is the method:
Ionophore and Arachidonic Acid Induced TXB2 Released by Human Platelets
The plate was incubated for 15 minutes at 37° C. Following incubation, platelets were challenged with calcium ionophore (final 10 μM) or arachidonic acid (AA) (final 50 μM) and the plate was further incubated at 37° C. for 15 min. The plate was transferred to an ice bed for 5 min in order to stop the reaction. Supernatants were assayed for TXB2 production by EIA (Assay Design Inc) after diluting with assay buffer (Assay Design Inc).

The next test relates to Neutrophil LTB4. Description: Neutrophil LTB4 assay (calcium ionophore challenge, EIA). The format is cell-based. Particulars: Neutrophil; test concentration of 5 μM; human neutrophils, calcium ionophore 1 μM; read-out: LTB4 percent inhibition. How it is done: Neutrophils purified from human blood were resuspended in HBSS buffer containing calcium and magnesium to a cell density of 1×10^6/mL. Purified neutrophils were then incubated with test compounds at a test concentration of 5 μM for 15 min at 37° C. Following incubation, the cells were challenged with calcium ionophore (1 μM final) for 15 minutes at 37° C. Negative control wells were incubated with equal volume of vehicle. The reaction was stopped by transferring the plate to ice for 5 minutes. The plate was centrifuged at 1500 RPM for 5 min at 4° C. LTB4 was calculated in cell free supernatants by EIA (Assay Design Inc).

Take `O=c1cc(Cl)sn1Cc1cccc2ccccc12` [Cpd 1, 5-chloro-2-naphthalen-1-ylmethyl-isothiazol-3-one]: in test [1], the concentration for half-maximal inhibition (IC50) (usually the concentration needed to halve the response being measured) worked out at 3 µM. Further, the inhibition – broadly, the drop in the measured response relative to a control, in per cent – at 5 µM in the test on Neutrophil LTB4 was 99%.
Regarding `O=c1cc(Cl)sn1C1CCc2ccccc21` (centres unmarked) [Cpd 3, 5-chloro-2-indan-1-yl-isothiazol-3-one], the IC50 in test [1] was 0.9 µM. For the same molecule, the inhibition at 5 µM in the test on Neutrophil LTB4 turned out to be 86%.
The corresponding values for `O=c1cc(Cl)sn1CC1CCCc2ccccc21` (centres unmarked) [Cpd 4, 5-chloro-2-(1,2,3,4-tetrahydro-naphthalen-1-ylmethyl)-isothiazol-3-one] are 3.3 µM and 100%.
Taken in the same sequence, the figures for `CC(c1cccc2ccccc12)n1sc(Cl)cc1=O` (centres unmarked) [Cpd 5, 5-chloro-2-(1-naphthalen-1-yl-ethyl)-isothiazol-3-one] were 0.6 µM and 100%.
Taken in the same sequence, the figures for `O=c1ccsn1Cc1sc2ccccc2c1Cl` [Cpd 8, 2-(3-chloro-benzo[b]thiophen-2-ylmethyl)-isothiazol-3-one] were 1.4 µM and 74%.
Turning to `O=c1c(Cl)c(Cl)sn1Cc1csc2ccccc12` [Cpd 10, 2-benzo[b]thiophen-3-ylmethyl-4,5-dichloro-isothiazol-3-one], the inhibition at 1 µM in test [1] stood at 84%. The inhibition at 5 µM in the test with Neutrophil LTB4 is 100%.
Taken in the same sequence, the figures for `O=c1cc(Cl)sn1Cc1csc2ccccc12` [Cpd 11, 2-benzo[b]thiophen-3-ylmethyl-5-chloro-isothiazol-3-one] were 68% and 100%.
In the case of `O=c1ccsn1Cc1csc2ccccc12` [Cpd 12, 2-benzo[b]thiophen-3-ylmethyl-isothiazol-3-one], the IC50 in test [1] worked out at 0.75 µM. For the same molecule, the inhibition at 5 µM in the test on Neutrophil LTB4 was 89%.
Turning to `O=c1ccsn1Cc1ccc2ccccc2c1` [Cpd 13, 2-naphthalen-2-ylmethyl-isothiazol-3-one], the IC50 in test [1] was found to be 1.3 µM. Moreover, the inhibition at 5 µM in the test on Neutrophil LTB4 was found to be 78%.
Taken in the same sequence, the figures for `O=c1cc(Cl)sn1Cc1ccc2ccccc2c1` [Cpd 14, 5-chloro-2-naphthalen-2-ylmethyl-isothiazol-3-one] were 0.35 µM and 96%.
The corresponding values for `O=c1c(Cl)c(Cl)sn1Cc1ccc2ccccc2c1` [Cpd 15, 4,5-dichloro-2-naphthalen-2-ylmethyl-isothiazol-3-one] are 0.33 µM and 75%.
Turning to `O=c1ccsn1Cc1ccc2c(c1)CCO2` [Cpd 17, 2-(2,3-dihydro-benzofuran-5-ylmethyl)-isothiazol-3-one], the 50% inhibitory concentration (IC50) in test [1] turned out to be 5.8 µM. Further, the inhibition at 5 µM in the test with Neutrophil LTB4 is 39%.
The corresponding values for `O=c1c(Cl)c(Cl)sn1Cc1csc2ccc(Cl)cc12` [Cpd 18, 4,5-dichloro-2-(5-chloro-benzo[b]thiophen-3-ylmethyl)-isothiazol-3-one] are 0.28 µM and 71%.
Turning to `O=c1cc(Cl)sn1Cc1csc2ccc(Cl)cc12` [Cpd 19, 5-chloro-2-(5-chloro-benzo[b]thiophen-3-ylmethyl)-isothiazol-3-one], the IC50 in test [1] turned out to be 1 µM. Further, the inhibition at 5 µM in the test with Neutrophil LTB4 came to 100%.
The corresponding values for `O=c1ccsn1Cc1csc2ccc(Cl)cc12` [Cpd 20, 2-(5-chloro-benzo[b]thiophen-3-ylmethyl)-isothiazol-3-one] are 1 µM and 88%.
Taken in the same sequence, the figures for `O=c1ccsn1Cc1ccc(-c2csnn2)cc1` [Cpd 22, 2-(4-[1,2,3]thiadiazol-4-yl-benzyl)-isothiazol-3-one] were 1.2 µM and 50%.
On to `O=c1cc(Cl)sn1Cc1ccc(-c2ccco2)cc1` [Cpd 23, 5-chloro-2-(4-furan-2-yl-benzyl)-isothiazol-3-one], for which, in test [1], the IC50 is 0.3 µM. Moreover, in the test on Neutrophil LTB4, the inhibition at 5 µM came to 100%.
Taken in the same sequence, the figures for `O=c1c(Cl)c(Cl)sn1Cc1ccc(-c2csnn2)cc1` [Cpd 24, 4,5-dichloro-2-(4-[1,2,3]thiadiazol-4-yl-benzyl)-isothiazol-3-one] were 0.5 µM and 52%.
Taken in the same sequence, the figures for `CC(=O)c1ccc(Cn2sccc2=O)cc1` [Cpd 25, 2-(4-acetylbenzyl)-isothiazol-3-one] were 1 µM and 54%.
In the case of `C=Cc1ccc(Cn2sc(Cl)cc2=O)cc1` [Cpd 27, 5-chloro-2-(4-vinyl-benzyl)-isothiazol-3-one], the half-maximal inhibitory concentration (IC50) in test [1] turned out to be 0.8 µM. Besides, the inhibition at 5 µM in the test with Neutrophil LTB4 came out at 100%.
Taken in the same sequence, the figures for `O=c1c(Cl)c(Cl)sn1Cc1ccc(C#Cc2cccc(Cl)c2)cc1` [Cpd 28, 4,5-dichloro-2-[4-(3-chlorophenylethynyl)-benzyl]-isothiazol-3-one] were 3.5 µM and 100%.
Taken in the same sequence, the figures for `CS(=O)(=O)c1ccc(Cn2sc(Cl)c(Cl)c2=O)cc1` [Cpd 29, 4,5-dichloro-2-(4-methanesulfonyl-benzyl)-isothiazol-3-one] were 0.3 µM and 64%.
Taken in the same sequence, the figures for `CC(c1ccc(S(C)(=O)=O)cc1)n1sc(Cl)c(Cl)c1=O` (centres unmarked) [Cpd 30, 4,5-dichloro-2-[1-(4-methanesulfonyl-phenyl)-ethyl]-isothiazol-3-one] were 0.2 µM and 100%.
With `Cc1nc(-c2ccc(Cn3sc(Cl)cc3=O)cc2)cs1` [Cpd 31, 5-chloro-2-[4-(2-methyl-thiazol-4-yl)-benzyl]-isothiazol-3-one], the inhibition at 1 µM in test [1] turned out to be 54%. The inhibition at 5 µM in the test on Neutrophil LTB4 came out at 88%.
For `O=c1cc(Cl)sn1Cc1cccc(-c2csnn2)c1` [Cpd 32, 5-chloro-2-(3-[1,2,3]thiadiazol-4-ylbenzyl)-isothiazol-3-one], the 50% inhibitory concentration (IC50) in test [1] is 0.6 µM. In addition, the inhibition at 5 µM in the test with Neutrophil LTB4 stood at 100%.
Taken in the same sequence, the figures for `O=c1c(Cl)c(Cl)sn1C(c1ccccc1)c1ccccn1` (centres unmarked) [Cpd 33, 4,5-dichloro-2-(phenyl-pyridin-2-yl-methyl)-isothiazol-3-one] were 0.2 µM and 95%.
Taken in the same sequence, the figures for `O=C(c1ccccc1)c1ccc(Cn2sc(Cl)c(Cl)c2=O)cc1` [Cpd 34, 4,5-dichloro-2-(4-benzoylbenzyl)-isothiazol-3-one] were 0.4 µM and 84%.
`O=C(c1ccccc1)c1ccc(Cn2sc(Cl)cc2=O)cc1` [Cpd 35, 5-chloro-2-(4-benzoylbenzyl)-isothiazol-3-one]: the half-inhibitory concentration (IC50) in test [1] stood at 0.06 µM. Besides, in the test on Neutrophil LTB4, the inhibition at 5 µM was 100%.
As for `O=c1cc(Cl)sn1Cc1ccc(S(=O)(=O)c2ccc(F)cc2)cc1` [Cpd 36, 5-chloro-2-[4-(4-fluoro-benzenesulfonyl)-benzyl]-isothiazol-3-one], the IC50 in test [1] is 0.5 µM. Besides, in the test with Neutrophil LTB4, the inhibition at 5 µM turned out to be 56%.
The corresponding values for `COC(=O)c1ccc(Cn2sc(Cl)cc2=O)cc1` [Cpd 37, 4-(5-chloro-3-oxo-3H-isothiazol-2-ylmethyl)-benzoic acid methyl ester] are 0.5 µM and 95%.
Regarding `O=c1cc(Cl)sn1Cc1ccc(S(=O)(=O)c2ccccc2)cc1` [Cpd 38, 5-chloro-2-(4-benzenesulfonyl-benzyl)-isothiazol-3-one], in test [1], the IC50 came to 0.9 µM. In addition, the inhibition at 5 µM in the test on Neutrophil LTB4 stood at 93%.
On to `O=c1c(Cl)c(Cl)sn1[C@H]1C[C@@H]1c1ccccc1` [Cpd 39, (1S,2R)-4,5-dichloro-2-(2-phenyl-cyclopropyl)-isothiazol-3-one], for which the IC50 in test [1] worked out at 0.2 µM. Besides, the inhibition at 5 µM in the test on Neutrophil LTB4 amounted to 94%.
Taken in the same sequence, the figures for `C#Cc1ccc(Cn2sc(Cl)cc2=O)cc1` [Cpd 40, 5-chloro-2-(4-ethynyl-benzyl)-isothiazol-3-one] were 0.2 µM and 100%.
The corresponding values for `CCCCCS(=O)(=O)c1ccc(Cn2sc(Cl)cc2=O)cc1` [Cpd 41, 5-chloro-2-[4-(pentane-1-sulfonyl)-benzyl]-isothiazol-3-one] are 0.5 µM and 100%.
The corresponding values for `O=c1cc(Cl)sn1[C@H]1C[C@@H]1c1ccccc1` [Cpd 42, (1S,2R)-5-chloro-2-(2-phenyl-cyclopropyl)-isothiazol-3-one] are 0.4 µM and 61%.
Turning to `N#Cc1cccc(C#Cc2ccc(Cn3sc(Cl)cc3=O)cc2)c1` [Cpd 43, 3-[4-(5-chloro-3-oxo-3H-isothiazol-2ylmethyl)-phenylethynyl]-benzonitrile], the IC50 in test [1] was 1.6 µM. Besides, the inhibition at 5 µM in the test on Neutrophil LTB4 turned out to be 100%.
`Cc1nc(-c2cccc(-n3sc(Cl)cc3=O)c2)c(Cl)s1` [Cpd 44, 5-chloro-2-[3-(2-methyl-5-chloro-thiazol-4-yl)-phenyl]-isothiazol-3-one]: the IC50 in test [1] came to 2 µM. The inhibition at 5 µM with Neutrophil LTB4 is 69%.
The corresponding values for `Cc1nc(-c2cccc(-n3sccc3=O)c2)c(Cl)s1` [Cpd 45, 2-[3-(2-methyl-5-chloro-thiazol-4-yl)-phenyl]-isothiazol-3-one] are 1.8 µM and 100%.
Taken in the same sequence, the figures for `Cc1nc(-c2cccc(-n3sccc3=O)c2)cs1` [Cpd 46, 2-[3-(2-methyl-thiazol-4-yl)-phenyl]-isothiazol-3-one] were 1 µM and 64%.
Taken in the same sequence, the figures for `Cc1nc(-c2cccc(-n3sc(Cl)cc3=O)c2)cs1` [Cpd 47, 5-chloro-2-[3-(2-methyl-thiazol-4-yl)-phenyl]-isothiazol-3-one] were 1 µM and 100%.
